PubChem BioAssay AID248 (DTP/NCI, 2004)
Toxic doses and inconclusive results are not listed. Cut-off read from the data, not from the text of the source: active = T/C of 150% or more; inactive = T/C below 125%.

System: L1210 leukemia ip in BDF1 mice, survival T/C
Test: NCI In Vivo Anticancer Drug Screen. Data for tumor model L1210 Leukemia (intraperitoneal) in B6D2F1 (BDF1) mice
Details: endpoint: mean survival time, higher = longer survival
Procedure, shortened: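 Each compound was tested against a transplantable tumor grown in mice. The endpoint was survival, with treated animals benchmarked against vehicle controls as a simple ratio.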

[1] = dose: 100.0 mg/kg/injection, schedule: Q04DX002 (ip), vehicle: Klucel (hydroxypropylcellulose) (HPC)
[2] = dose: 100.0 mg/kg/injection, schedule: Q01DX009 (ip), vehicle: Klucel (hydroxypropylcellulose) (HPC)
[3] = dose: 100.0 mg/kg/injection, schedule: Q04DX003 (ip), vehicle: Klucel (hydroxypropylcellulose) (HPC)
[4] = dose: 200.0 mg/kg/injection, schedule: Q01DX009 (ip), vehicle: Klucel (hydroxypropylcellulose) (HPC)
[5] = dose: 200.0 mg/kg/injection, schedule: Q04DX003 (ip), vehicle: Klucel (hydroxypropylcellulose) (HPC)
[6] = dose: 400.0 mg/kg/injection, schedule: Q04DX003 (ip), vehicle: Klucel (hydroxypropylcellulose) (HPC)

Measured: T/C

NC(CSS(=O)(=O)O)=NC1CC1
inactive: [1] 94 % of control | dose: 200.0 mg/kg/injection, schedule: Q04DX002 (ip), vehicle: Klucel (hydroxypropylcellulose) (HPC) 91 % of control | dose: 400.0 mg/kg/injection, schedule: Q04DX002 (ip), vehicle: Klucel (hydroxypropylcellulose) (HPC) 109 % of control

O=C(OCc1ccccc1)C(=O)OCc1ccccc1
inactive: [2] 90 % of control | [3] 95 % of control | [4] 103 % of control | [5] 100 % of control | [6] 100 % of control

O=[N+]([O-])c1ccccc1CN1c2ccccc2N=C2c3ccccc3CC21 (stereo unspecified)
inactive: [3] 88 % of control | [5] 91 % of control | [6] 100 % of control

Cc1ccc(NC(=O)Nc2cccc(Cl)c2)cc1C
inactive: [2] 96 % of control | [3] 90 % of control | [4] 98 % of control | [5] 92 % of control | dose: 400.0 mg/kg/injection, schedule: Q01DX009 (ip), vehicle: Klucel (hydroxypropylcellulose) (HPC) 95 % of control | [6] 92 % of control

C[N+]12CCCc3cc(CO)cc(c31)CCC2
inactive: dose: 12.5 mg/kg/injection, schedule: Q01DX009 (ip), vehicle: Klucel (hydroxypropylcellulose) (HPC) 101 % of control | dose: 12.5 mg/kg/injection, schedule: Q04DX003 (ip), vehicle: Klucel (hydroxypropylcellulose) (HPC) 97 % of control | dose: 25.0 mg/kg/injection, schedule: Q01DX009 (ip), vehicle: Klucel (hydroxypropylcellulose) (HPC) 105 % of control | dose: 25.0 mg/kg/injection, schedule: Q04DX003 (ip), vehicle: Klucel (hydroxypropylcellulose) (HPC) 92 % of control | dose: 50.0 mg/kg/injection, schedule: Q04DX003 (ip), vehicle: Klucel (hydroxypropylcellulose) (HPC) 97 % of control

C[N+](C)(C)CCOC(=O)C1C2CC3OC(=O)C1C3C2 (stereo unspecified)
inactive: dose: 100.0 mg/kg/injection, schedule: Q04DX003 (ip), vehicle: saline 98 % of control | dose: 200.0 mg/kg/injection, schedule: Q04DX003 (ip), vehicle: saline 102 % of control | dose: 400.0 mg/kg/injection, schedule: Q04DX003 (ip), vehicle: saline 96 % of control

CC(C(O)c1ccc(Cl)cc1)C(O)(C(F)(F)F)C(F)(F)F (stereo unspecified)
inactive: dose: 75.0 mg/kg/injection, schedule: Q01DX009 (ip), vehicle: saline with Tween-80 100 % of control | dose: 150.0 mg/kg/injection, schedule: Q01DX009 (ip), vehicle: saline with Tween-80 110 % of control | dose: 300.0 mg/kg/injection, schedule: Q01DX009 (ip), vehicle: saline with Tween-80 101 % of control

O=C(Nc1ccc(Cl)cc1)c1ccc([N+](=O)[O-])cc1
inactive: dose: 100.0 mg/kg/injection, schedule: Q04DX002 (ip), vehicle: gum acacia 106 % of control | dose: 200.0 mg/kg/injection, schedule: Q04DX002 (ip), vehicle: gum acacia 102 % of control | dose: 400.0 mg/kg/injection, schedule: Q04DX002 (ip), vehicle: gum acacia 98 % of control

NNC(=O)CNc1cccc(Cl)c1F
inactive: dose: 25.0 mg/kg/injection, schedule: Q04DX002 (ip), vehicle: Klucel (hydroxypropylcellulose) (HPC) 92 % of control | dose: 50.0 mg/kg/injection, schedule: Q04DX002 (ip), vehicle: Klucel (hydroxypropylcellulose) (HPC) 92 % of control | [1] 122 % of control

Cc1nc2c(N)nnc(N)c2nc1C
inactive: dose: 25.0 mg/kg/injection, schedule: Q01DX001 (ip), vehicle: Klucel (hydroxypropylcellulose) (HPC) 97 % of control | dose: 50.0 mg/kg/injection, schedule: Q01DX001 (ip), vehicle: Klucel (hydroxypropylcellulose) (HPC) 93 % of control | dose: 100.0 mg/kg/injection, schedule: Q01DX001 (ip), vehicle: Klucel (hydroxypropylcellulose) (HPC) 95 % of control | [2] 100 % of control

O=Cc1ccc(C(=O)O)cc1
inactive: dose: 100.0 mg/kg/injection, schedule: Q04DX003 (ip), vehicle: saline with Tween-80 98 % of control | dose: 200.0 mg/kg/injection, schedule: Q04DX003 (ip), vehicle: saline with Tween-80 96 % of control | dose: 400.0 mg/kg/injection, schedule: Q04DX003 (ip), vehicle: saline with Tween-80 95 % of control
